Data from patent US20230002375A1, “HYDROPYRAZINO[1,2-B]ISOQUINOLINE COMPOUNDS FOR THE TREATMENT OF AUTOIMMUNE DISEASE” (Hoffmann-La Roche Inc., priority 2019, published 2023).

target: T1, human TLR7 (Homo sapiens, UniProt Q9NYK1); test: HEK293-Blue-hTLR-7 cells assay (SEAP reporter, R848 stimulation); format: cell-based; settings: HEK293-Blue-hTLR7 cells, R848, 20 hrs incubation; read-out: HEK/hTLR7 IC50
T1 sequence (Q9NYK1 27-1049): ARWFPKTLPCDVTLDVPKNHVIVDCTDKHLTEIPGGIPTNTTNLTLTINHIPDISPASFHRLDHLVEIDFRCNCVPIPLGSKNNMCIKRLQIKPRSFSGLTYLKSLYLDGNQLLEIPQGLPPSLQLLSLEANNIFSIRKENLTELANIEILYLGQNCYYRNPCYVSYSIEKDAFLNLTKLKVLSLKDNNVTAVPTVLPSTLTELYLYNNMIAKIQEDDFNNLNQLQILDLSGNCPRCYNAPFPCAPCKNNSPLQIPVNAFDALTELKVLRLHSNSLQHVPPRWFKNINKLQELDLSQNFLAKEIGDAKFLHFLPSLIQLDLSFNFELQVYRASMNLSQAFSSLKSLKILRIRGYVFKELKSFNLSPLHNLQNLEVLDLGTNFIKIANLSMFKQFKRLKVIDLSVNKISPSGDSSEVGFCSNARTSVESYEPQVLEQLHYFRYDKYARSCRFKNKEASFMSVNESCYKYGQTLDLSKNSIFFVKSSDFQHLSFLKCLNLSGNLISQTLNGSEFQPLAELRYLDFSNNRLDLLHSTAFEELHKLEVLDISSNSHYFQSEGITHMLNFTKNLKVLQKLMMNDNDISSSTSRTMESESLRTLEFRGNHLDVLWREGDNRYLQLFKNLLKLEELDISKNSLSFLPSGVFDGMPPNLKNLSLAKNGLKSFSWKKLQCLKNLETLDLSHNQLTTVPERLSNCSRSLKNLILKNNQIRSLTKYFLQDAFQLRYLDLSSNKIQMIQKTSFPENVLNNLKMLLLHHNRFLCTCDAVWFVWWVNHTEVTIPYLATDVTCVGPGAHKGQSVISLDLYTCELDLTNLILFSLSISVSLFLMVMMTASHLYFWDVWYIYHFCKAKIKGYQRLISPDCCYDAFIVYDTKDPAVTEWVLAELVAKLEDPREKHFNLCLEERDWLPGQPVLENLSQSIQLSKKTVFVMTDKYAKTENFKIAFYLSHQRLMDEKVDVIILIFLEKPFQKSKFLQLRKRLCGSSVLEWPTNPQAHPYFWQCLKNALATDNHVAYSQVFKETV
Protocol: The following tests were carried out in order to determine the activity of the compounds of formula (I), (Ia) or (Ib) in HEK293-Blue-hTLR-7/8/9 cells assay.
HEK293-Blue-hTLR-7 Cells Assay:
A stable HEK293-Blue-hTLR-7 cell line was purchased from InvivoGen (Cat.#: hkb-htlr7, San Diego, Calif., USA). These cells were originally designed for studying the stimulation of human TLR7 by monitoring the activation of NF-κB. A SEAP (secreted embryonic alkaline phosphatase) reporter gene was placed under the control of the IFN-β minimal promoter fused to five NF-κB and AP-1-binding sites. The SEAP was induced by activating NF-κB and AP-1 via stimulating HEK-Blue hTLR7 cells with TLR7 ligands. Therefore the reporter expression was declined by TLR7 antagonist under the stimulation of a ligand, such as R848 (Resiquimod), for incubation of 20 hrs. The cell culture supernatant SEAP reporter activity was determined using QUANTI-Blue™ kit (Cat.#: rep-qb1, Invivogen, San Diego, Ca, USA) at a wavelength of 640 nm, a detection medium that turns purple or blue in the presence of alkaline phosphatase.
HEK293-Blue-hTLR7 cells were incubated at a density of 250,000˜450,000 cells/mL in a volume of 170 μL in a 96-well plate in Dulbecco's Modified Eagle's medium (DMEM) containing 4.5 g/L glucose, 50 U/mL penicillin, […], […], 2 mM L-glutamine, 10% (v/v) heat-inactivated fetal bovine serum with addition of 20 μL test compound in a serial dilution in the presence of final DMSO at 1% and 10 μL of 20 uM R848 in above DMEM, perform incubation under 37° C. in a CO2 incubator for 20 hrs. Then 20 μL of the supernatant from each well was incubated with 180 μL Quanti-blue substrate solution at 37° C. for 2 hrs and the absorbance was read at 620-655 nm using a spectrophotometer. The signaling pathway that TLR7 activation leads to downstream NF-κB activation has been widely accepted, and therefore similar reporter assay was modified for evaluating TLR7 antagonist.

| Structure (SMILES) | IC50 |
| --- | --- |
| C[C@@H]1CN(c2ccc(C#N)c3ncccc23)C[C@@H]2Cc3cc(OC[C@@H]4CCN4)ccc3CN21 [Example 12, 5-[(4R,11aS)-9-[[(2S)-azetidin-2-yl]methoxy]-4-methyl-1,3,4,6,11,11a-hexahydropyrazino[1,2-b]isoquinolin-2-yl]quinoline-8-carbonitrile] | 18.2 nM |
| C[C@@H]1CN(c2ccc(C#N)c3ncccc23)C[C@@H]2Cc3cc(N4CC(N)CC4=O)ccc3CN21 (stereo partly drawn) [Example 16, 5-[(4R,11aS)-9-(4-amino-2-oxo-pyrrolidin-1-yl)-4-methyl-1,3,4,6,11,11a-hexahydropyrazino[1,2-b]isoquinolin-2-yl]quinoline-8-carbonitrile] | 2.9 nM |
| CO[C@H]1CNC[C@H]1Nc1ccc2c(c1)C[C@H]1CN(c3ccc(C#N)c4ncccc34)C[C@@H](C)N1C2 [Example 7, 5-[(4R,11aS)-9-[[(3R,4S)-4-methoxypyrrolidin-3-yl]amino]-4-methyl-1,3,4,6,11,11a-hexahydropyrazino[1,2-b]isoquinolin-2-yl]quinoline-8-carbonitrile] | 27.4 nM |
| C[C@@H]1CN(c2ccc(C#N)c3ncccc23)C[C@@H]2Cc3ccc(NCCN4CC[C@H](O)C4)cc3CN21 [Example 2, 5-[(4R,11aS)-8-[2-[(3S)-3-hydroxypyrrolidin-1-yl]ethylamino]-4-methyl-1,3,4,6,11,11a-hexahydropyrazino[1,2-b]isoquinolin-2-yl]quinoline-8-carbonitrile] | 53.1 nM |
| C[C@@H]1CN(c2ccc(C#N)c3ncccc23)C[C@@H]2Cc3ccc(N4CCOCC(N)C4)cc3CN21 (stereo partly drawn) [Example 1, 5-[(4R,11aS)-8-(6-amino-1,4-oxazepan-4-yl)-4-methyl-1,3,4,6,11,11a-hexahydropyrazino[1,2-b]isoquinolin-2-yl]quinoline-8-carbonitrile] | 71.6 nM |
| C[C@@H]1CN(c2ccc(C#N)c3ncccc23)C[C@@H]2Cc3cc(N4C[C@@H]5C[C@H]4CN5C(=O)C(C)(C)N)ccc3CN21 [Example 15, 5-[(4R,11aS)-9-[(1S,4S)-5-(2-amino-2-methyl-propanoyl)-2,5-diazabicyclo[2.2.1]heptan-2-yl]-4-methyl-1,3,4,6,11,11a-hexahydropyrazino[1,2-b]isoquinolin-2-yl]quinoline-8-carbonitrile] | 2.4 nM |
| C[C@@H]1CN(c2ccc(C#N)c3ncccc23)C[C@@H]2Cc3cc(N4CC5CCNCC5C4=O)ccc3CN21 (stereo partly drawn) [Example 18, 5-[(4R,11aS)-4-methyl-9-(3-oxo-3a,4,5,6,7,7a-hexahydro-1H-pyrrolo[3,4-c]pyridin-2-yl)-1,3,4,6,11,11a-hexahydropyrazino[1,2-b]isoquinolin-2-yl]quinoline-8-carbonitrile] | 71.6 nM |
| C[C@@H]1CN(c2ccc(C#N)c3ncccc23)C[C@@H]2Cc3cc(N4C[C@@H]5CNCCN5C4=O)ccc3CN21 (single isomer, unassigned) [Example 17A] | 10.3 nM |
| C[C@@H]1CN(c2ccc(C#N)c3ncccc23)C[C@@H]2Cc3ccc(OCCN(C)C)cc3CN21 [Example 5, 5-[(4R,11aS)-8-[2-(dimethylamino)ethoxy]-4-methyl-1,3,4,6,11,11a-hexahydropyrazino[1,2-b]isoquinolin-2-yl]quinoline-8-carbonitrile] | 38.2 nM |
| C[C@@H]1CN(c2ccc(C#N)c3ncccc23)C[C@@H]2Cc3cc(N4C[C@H]5CNCCN5C4=O)ccc3CN21 (single isomer, unassigned) [Example 17B] | 10.3 nM |
| C[C@@H]1CN(c2ccc(C#N)c3ncccc23)C[C@@H]2Cc3cc(N4C[C@@H](F)[C@@H](N)C4)ccc3CN21 [Example 8, 5-[(4R,11aS)-9-[(3S,4R)-3-amino-4-fluoro-pyrrolidin-1-yl]-4-methyl-1,3,4,6,11,11a-hexahydropyrazino[1,2-b]isoquinolin-2-yl]quinoline-8-carbonitrile] | 35.5 nM |
| C[C@@H]1CN(c2ccc(C#N)c3ncccc23)C[C@@H]2Cc3cc(N4CCN(C(=O)[C@]5(C)CCCN5)CC4)ccc3CN21 [Example 14, 5-[(4R,11aS)-4-methyl-9-[4-[(2S)-2-methylpyrrolidine-2-carbonyl]piperazin-1-yl]-1,3,4,6,11,11a-hexahydropyrazino[1,2-b]isoquinolin-2-yl]quinoline-8-carbonitrile] | 18.6 nM |
| C[C@@H]1CN(c2ccc(C#N)c3ncccc23)C[C@@H]2Cc3cc(N4CC5CNCCC5C4=O)ccc3CN21 (stereo partly drawn) [Example 19, 5-[(4R,11aS)-4-methyl-9-(1-oxo-3a,4,5,6,7,7a-hexahydro-3H-pyrrolo[3,4-c]pyridin-2-yl)-1,3,4,6,11,11a-hexahydropyrazino[1,2-b]isoquinolin-2-yl]quinoline-8-carbonitrile] | 53.1 nM |
| CO[C@H]1CN(c2ccc3c(c2)C[C@H]2CN(c4ccc(C#N)c5ncccc45)C[C@@H](C)N2C3)C[C@H]1N [Example 9, 5-[(4R,11aS)-9-[(3R,4S)-3-amino-4-methoxy-pyrrolidin-1-yl]-4-methyl-1,3,4,6,11,11a-hexahydropyrazino[1,2-b]isoquinolin-2-yl]quinoline-8-carbonitrile] | 19.5 nM |
| C[C@@H]1CN(c2ccc(C#N)c3ncccc23)C[C@@H]2Cc3cc(OCCN(C)C)ccc3CN21 [Example 11, 5-[(4R,11aS)-9-[2-(dimethylamino)ethoxy]-4-methyl-1,3,4,6,11,11a-hexahydropyrazino[1,2-b]isoquinolin-2-yl]quinoline-8-carbonitrile] | 5.8 nM |
| C[C@@H]1CN(c2ccc(C#N)c3ncccc23)C[C@@H]2Cc3cc(N[C@@H]4CNC[C@@H]4F)ccc3CN21 [Example 6, 5-[(4R,11aS)-4-methyl-9-[[(3R,4S)-4-fluoropyrrolidin-3-yl]amino]-1,3,4,6,11,11a-hexahydropyrazino[1,2-b]isoquinolin-2-yl]quinoline-8-carbonitrile] | 24.7 nM |
| C[C@@H]1CN(c2ccc(C#N)c3ncccc23)C[C@@H]2Cc3cc(N4CCN(C(=O)C(C)(C)N)CC4)ccc3CN21 [Example 13, 5-[(4R,11aS)-9-[4-(2-amino-2-methyl-propanoyl)piperazin-1-yl]-4-methyl-1,3,4,6,11,11a-hexahydropyrazino[1,2-b]isoquinolin-2-yl]quinoline-8-carbonitrile] | 18.6 nM |
| C[C@@H]1CN(c2ccc(C#N)c3ncccc23)C[C@@H]2Cc3cc(N4CC5NCCOC5C4)ccc3CN21 (stereo in doubt) [Example 10, 5-[(4R,11aS)-9-[(4aS,7aS)-3,4,4a,5,7,7a-hexahydro-2H-pyrrolo[3,4-b][1,4]oxazin-6-yl]-4-methyl-1,3,4,6,11,11a-hexahydropyrazino[1,2-b]isoquinolin-2-yl]quinoline-8-carbonitrile] | 21.8 nM |
